{
  "source": "patent US12410399B2",
  "about": "“Compositions and methods for treating retinal diseases” (The Regents of the University of California, priority 2011, dated 2025)",
  "key": {"[1]": {"test_system": "hRPC", "experiment": "steroid toxicity test on hRPCs (CCK-8 cytotoxicity)", "format": "cell-based, human", "method": "The cells were also subjected to a steroid toxicity test, since steroids are often used in patients at the time of transplantation.\nCell Counting Kit-8 (CCK-8; Dojindo Molecular Technologies Inc., Gaithersburg, MD) was used to determine cytotoxicity of RPCs. The kit uses WST-8, which, upon bioreduction in the presence of the electron carrier 1-methoxy PMS, produces a water-soluble colored formazan. Ninety-six well plates containing 90 μl of cell suspension per well were inoculated with 10 μl of CCK-8 pre-packaged solution. The plates were incubator for 2 hours and the OD450 of the supernatant was measured. Each experiment was performed in quadruplicate on at least three separate experiments."}, "[2]": {"test_system": "hRPCs", "experiment": "hRPC culture medium and supplement comparison (yield, proliferation)", "format": "cell-based, human", "conditions": "supplement added to culture medium every two days", "experimental": "Various serum- and xeno-free cell culture media were tested to determine the optimum condition for propagating RPCs, including DMEM/FF12 (standard, Advanced and KnockOut; Invitrogen), Neurobasal (Invitrogen), Ultraculture (Lonza), and ReNcell (Chemicon). […] “SM” as provided herein refers to standard growth medium based on DMEM/FF12. “UL” is referred to herein as growth medium using Ultraculture as the base medium. Serum-free media was used in the absence of antibiotics or with antibiotics for first two weeks, followed by antibiotic-free media for about 6 weeks. No antifungal agents were used. […] For base medium, standard DMEM/F12, a media supplemented with N2 Supplement, growth factors, glutamine or GLUTAMAX™ (GlutaMax™), was compared with “Advanced DMEM/FF12”, supplemented in the same way.\nThe effects of cell culture supplementation were also explored. To that end, the N2 supplement was also compared with the B27 xeno-free supplement. […] The effects of additional vitamin C were also tested. A vitamin C supplement was added to the culture medium every two days. […] Finally, supplementation with albumin was tested.\nThe osmolarity of the cell culture medium was also examined by using media of differing osmolarity (osm), in combination with different commercially available supplements."}},
  "data": [
    {"smiles": "CC1(C)O[C@@H]2C[C@H]3[C@@H]4CCC5=CC(=O)C=C[C@]5(C)[C@@]4(F)[C@@H](O)C[C@]3(C)[C@]2(C(=O)CO)O1", "note": "[triamcinolone acetonide]", "values": [
      {"measurement": "effect on cell proliferation", "setting": "[1]; clinical doses", "result": "did not appear to affect cell proliferation"},
      {"measurement": "effect on donor cell viability", "setting": "[1]; high doses (about >10 times the expected clinical dose)", "result": "may decrease donor cell viability"}
    ]},
    {"smiles": "O=C1O[C@H]([C@@H](O)CO)C(O)=C1O", "note": "[vitamin C]", "values": [
      {"measurement": "improvement of hRPC yield", "setting": "[2]", "result": "approximately 30%"}
    ]}
  ]
}
